Test results: patent US6369109B1, “Betulinic acid and derivatives thereof useful for the treatment of neuroectodermal tumor” (Deutsches Krebsforschungszentrum Stiftung des Offentlichen …, priority 1998, dated 2002)
“Also recorded” adds a separate entry of the source. Residues, ends and D or L forms follow the SMILES beside them. *: point of attachment. Cbz = O=C(OCc1ccccc1)*; CH2F = FC*

Legend:
[1] = test system: isolated nuclei with mitochondria from SHEP cells; test: Cell-free system of apoptosis: nuclear fragmentation of isolated nuclei; format: biochemical, human; conditions: for effect of inhibitor on betulinic acid-induced fragmentation of nuclei / effect of inhibitor on nuclear fragmentation by mitochondria from drug-pretreated cells / effect of inhibitor on DNA fragmentation by supernatants from betulinic acid-treated mitochondria: 50 μM bongkrekic acid or 60 μM zVAD-fmk; for effect of inhibitor on DNA fragmentation by supernatants from betulinic acid-treated mitochondria: FIG. 10B
Description: (§1) For determination of nuclear fragmentation, nuclei (10^3/μl) were incubated with mitochondria (1 μg/μl) in buffer D (10 mM HEPES, pH 7.4, 50 mM NaCl, 2 mM MgCl2, 5 mM EGTA, 1 mM DDT, 2 mM ATP, 10 mM phosphocreatine, 50 μg/ml creatine kinase, 10 μM cytochalasin B) for 2 h at 37° C. Nuclei were stained with propidium iodide ([…]) and analyzed by flow cytometry. For determination of caspase activation, cytosolic extracts (2 μg/μl) were incubated with mitochondria (1 μg/μl), cytochrome c (0.1-100 μM) or AIF-containing mitochondrial supernatant (0.5 μg/μl) in buffer D for 2 h at 37° C. Partially purified AIF (cytochrome c-free) was prepared as previously described (0.5 mg/ml, Susin et al., 1997, J. Exp. Med. 186, 5-37; Susin et al., 1996, J. Exp. Med. 184, 1331-41). Proteins were separated by 15% SDS-PAGE and Western blot analysis was performed as described above.
Mitochondria isolated from SHEP cells, transfected with bcl-2 or bcl-XL or a neomycin resistance vector only, were incubated for 6 h with nuclei and 0.1-10 μg/ml betulinic acid (FIG. 8A) or 5 mM atractyloside (FIG. 8B) in the presence or absence of 50 μM bongkrekic acid or 60 μMZ-VAD-fnk. Nuclei incubated with either mitochondria from vector only cells or with betulinic acid were used as control. Nuclear apoptosis was determined by FACS analysis of propidium iodide stained DNA content.
SHEP cells transfected with bcl-2 or bcl-XL or a neomycin resistance vector only were treated with 10 μg/ml betulinic acid or 5 mM atractyloside for 6-24 h (FIG. 8C). Mitochondria were isolated and incubated with nuclei in the presence or absence of 50 μM bongkrekic acid or 60 μMZ-VAD-fmk. Nuclei incubated with either mitochondria front vector only cells or with betulinic acid were used as control. Nuclear apoptosis was determined by FACS analysis of propidium iodide stained DNA content.
Mitochondria isolated from SHEP cells transfected with bcl-2, Bcl-XL or a neomycin resistance vector only were treated with 10 μg/ml betulinic acid or 5 mM atractyloside for 0.5 h in the presence or absence of 50 μM bongkrekic acid or 60 μM zVAD-fmk. Mitochondrial supernatants obtained by high speed centrifugation were incubated with nuclei for 2 h at 37° C. Nuclei incubated with supernatants of untreated mitochondria were used as control.. Nuclear apoptosis was determined by FACS analysis of propidium iodide stained DNA content.
as §1, with “cytometry (Susin et al., 1997 Exp. Cell Res. 236:397-403).” for “cytometry.”, “(10” for “(0.1-100”, “C.” for “C. Partially purified AIF (cytochrome c-free) was prepared as previously described (0.5 mg/ml, Susin et al., 1997, J. Exp. Med. 186, 5-37; Susin et al., 1996, J. Exp. Med. 184, 1331-41).”, “before.” for “above.”
SHEP cells transfected with Bcl-2 or BCl-XL or a neomycin resistance vector only (Neo) were treated with 0.5 μg/ml Doxorubicin or 10 μg/ml Betulinic acid for 48 h (A) or 24 h (B and C). Cells transfected with a neomycin resistance vector only (Neo) were treated in the presence or absence of 50 μm BA or 60 μm zVAD-fmk. Nuclear apoptosis was determined by FACS analysis or propidium iodide-stained DNA content in intact cells (A) or in a CFS incubating isolated nuclei with mitochondria from cells treated with Doxo or betulinic acid (C). ΔΨm was determined by staining cells with the potential-sensitive fluorochrome DiOC6(3) (B).

[2] = test system: mitochondria isolated from SHEP cells; test: Mitochondrial membrane potential of isolated mitochondria (DiOC6(3)); format: biochemical, human; conditions: FIG. 7, 12D; for effect of inhibitor on betulinic acid-induced Δψm loss in isolated mitochondria: 50 μM bongkrekic acid or 60 μM zVAD-fmk
Description: For isolation of mitochondria, cells (3×10^5 per sample) were washed twice with ice-cold PBS and resuspended with five volumes of buffer A (50 mM Tris, 1 mM EGTA, 5 mM 2-mercaproethanol, 0.2% BSA, 10 mM KH2PO4, pH 7.6, 0.4 M sucrose) and allowed to swell on ice for 20 min. Cells were homogenized with 30 strokes of a Teflon homogenizer and centrifuged at 10000 g for 10 min at 4° C. The resulting pellets were resuspended in buffer B (10 mM KH2PO4, pH 7.2, […] mannitol, 0.1% BSA). Mitochondria were separated by sucrose gradient (lower layer: 1.6 M sucrose, 10 mM KH2PO4, pH 7.5, 0.1% BSA; upper layer: 1.2 M sucrose, 10 mM KH2PO4, pH 7.5, 0.1% BSA). Interphases containing mitochondria were washed with buffer B at 18000 g for 10 min at 4° C. and the resulting mitochondrial pellets were resuspended in buffer B. For preparation of cytosolic extracts, cells (1×10^8 per sample) were washed twice with ice-cold PBS, resuspended with one volume of buffer A and allowed to swell on ice for 20 min. Cells were homogenized with 30 strokes of a Dounce homogenizer and centrifuged at 15000×g for 15 min ax 4° C. The protein concentration of mitochondria or cytosolic extracts was determined by Bradford method (Bio-Rad). For isolation of nuclei, cells were washed twice in ice-cold PBS, resuspended in 10 volumes of buffer C (10 mM PIPES, pH 7.4, 10 mM KCl, 2 mM MgCl2, 1 mM DDT, 1 mM PMSF, 10 μM cytochalasin B), allowed to swell on ice for 20 min and homogenized using a Teflon homogenizer. Homogenates were layered over 30% sucrose in buffer C and centrifuged at 800 g for 10 min. The resulting nuclear pellets were resuspended in buffer C and washed three times. Nuclei were scored at −80° C. in aliquots of 10^8 nuclei/ml until required. AIF-containing mitochondrial supernatant was prepared as described in Susin et aL, 1997, J. Exp. Med. 186, 5-37 and Susin et al., 1996, J. Exp. Med. 184, 1331-41.
Mitochondria (5×10^5/ml) were treated with 10 μg/ml betulinic acid for 30 min, incubated with 3,3′-dihexyloxacarbocyanide iodide (DiOC6(3), 40 nM, Molecular Probes, Inc., Eugene, Oreg.) for 15 min at 37° C. and analyzed on a flow cytometer (FACS Vantage, Becton Dickinson). As a control, cells were treated with the uncoupling agent carbonyl cyanide m-chlorophenylhydrazone (mCICCP, 200 μM, Sigma).

CO[C@H](C/C=C\C=C\CC/C=C/C[C@H](C)/C=C/C(=C\C(=O)O)CC(=O)O)/C(C)=C\C=C(/C)C(=O)O [bongkrekic acid]
effect of inhibitor on betulinic acid-induced fragmentation of nuclei ([1]; FIG. 8A): inhibited | effect of inhibitor on nuclear fragmentation by mitochondria from drug-pretreated cells ([1]; FIG. 8C, 12C): again blocked | effect of inhibitor on DNA fragmentation by supernatants from betulinic acid-treated mitochondria [1]: also blocked | effect of inhibitor on betulinic acid-induced Δψm loss in isolated mitochondria [2]: inhibited

COc1cccc2c1C(=O)c1c(O)c3c(c(O)c1C2=O)C[C@@](O)(C(=O)CO)C[C@@H]3O[C@H]1C[C@H](N)[C@H](O)[C@H](C)O1 [doxorubicin]
nuclear fragmentation by mitochondria isolated from drug-pretreated cells ([1]; 10 μg/ml betulinic acid or 0.5 μg/ml doxorubicin, FIG. 8C, 12C): induced nuclear DNA fragmentation | nuclear DNA fragmentation, mitochondria plus nuclei plus drug ([1]; Neo control mitochondria, 0.1-10 μg/ml betulinic acid or 5 mM atractyloside, 6 h, FIG. 8A, 8B): No DNA fragmentation was observed | Δψm of isolated mitochondria ([2]; mitochondria from wild type or vector-only SHEP cells, 10 μg/ml betulinic acid, 30 min): did not induce mitochondrial perturbations

COC(=O)C[C@H](NC(=O)[C@H](C)NC(=O)[C@@H](NC(=O)OCc1ccccc1)C(C)C)C(=O)CF [zVAD-fmk, benzyloxycarbonyl-Val-Ala-Asp-Fluoromethylketone] (Cbz-Val-Ala-Asp(OMe)-CH2F)
effect of inhibitor on betulinic acid-induced fragmentation of nuclei ([1]; FIG. 8A): inhibited | effect of inhibitor on nuclear fragmentation by mitochondria from drug-pretreated cells ([1]; FIG. 8C, 12C): again blocked | effect of inhibitor on DNA fragmentation by supernatants from betulinic acid-treated mitochondria [1]: also blocked | effect of inhibitor on betulinic acid-induced Δψm loss in isolated mitochondria [2]: did not interfere; also recorded: not blocked
